Experimental data taken from patent US20060088545A1, “Use of inhibitors of the protease of the human immunodeficiency virus (hiv) to block cell migration and/or invasion, tissue infiltration and oedema for the therary of diseases associated therewith” (priority 2001, published 2006).
Entries after “also recorded” stand apart in the source; their conditions may differ.

Legend:
[1] = tested on: dermal microvascular endothelial cells (H-DMVEC); assay: Invasion assay of dermal microvascular endothelial cells in response to bFGF; type: cell-based, human
Procedure: Both assays were performed by the Boyden chamber separated in two compartments by polycarbonate filters with 12 μm pores (Nucleoprobe, Cabin John, Md.), coated with collagen IV (Collaborative Biomedical Products) for migration, or with collagen IV and Matrigel together for invasion, as described previously (Barillari et al., 1999b). […] After 5 hours (migration) or 6 hours (Invasion) of incubation, the non-migrated cells present on the top surface of the filters were mechanically removed, while the migrated cells on the bottom surface were fixed in methanol and stained with toluidine blue (Sigma Chemical Co., St. Louis, Mo.). The cells present in 5-10 microscopic fields of the filters, chosen at random, were counted as described previously (Barillari et al., 1999b).
Basal invasion in the absence of bFGF was assumed as 100%.

[2] = tested on: MMP-2; assay: Gelatin zymography of supernatants from TPA-stimulated HUVEC; type: cell-based, human; conditions: TPA 50 nM; 8 hours; 10 μM
Procedure: HUVEC were cultivated for 24 hours in RPMI 1640 with the addition of 10% FBS. […] Aliquots of cell supernatants were then assayed for MMP-2 activity by gel zymography as described above. HT1080 is a tumour cell line secreting large amount of MMP-2 that was used as a control. […] The amount of supernatant analysed was normalised to the total cell number.

[3] = tested on: hepato-carcinoma cells (SK-Hep-1); assay: Cell growth assay of SK-Hep-1 cells; type: cell-based, human; conditions: 10 μM; 4 days
Procedure: FIG. 16. […] Shown is the result of a representative cell growth assay performed on the hepato-carcinoma cells. Human hepato-carcinoma cells (SK-Hep-1; from ATCC) were plated in triplicate (8×10^4 cells/well) in 12-well plates. […] After 4 days of culture, the cells were counted by trypan blue dye staining, as previously described (Ensoli et al., 1990; Ensoli et al., 1994b): For all the in vitro studies HIV-PI as endotoxin-free pure powder (a kind gift of Merck Sharp & Dohme and Roche) were resuspended in distilled water. Assays were repeated at least three times.

[4] = tested on: smooth muscle cells; assay: Invasion assay of smooth muscle cells in response to bFGF; type: cell-based, human
Description: (§1) Assays have been essentially performed as described in key to FIGS. 1 and 3. […] Data of duplicate experiments (mean) are shown.

[5] = tested on: IL-1β; assay: IL-1β production by KS cells (ELISA); type: cell-based, human; conditions: 0.1, 1 and 10 μM, 5 days + 24 hours
Procedure: After 24 hours of incubation, the supernatants of the cultures were tested by ELISA (R & D Systems, Minneapolis, Minn., USA) to determine the quantity of IL-6 present in the medium. The quantity of IL-6 is expressed in pg/ml of supernatant. The same tests were carried out for bFGF, VEGF, IL-1α and IL-1β by means of commercial ELISA kits.
KS cells secrete cytokines with an inflammatory, oedemigenic, angiogenic and proliferative activity with autocrine and paracrine effects (Ensoli and Stürzl, 1998). These factors mediate all the processes required for KS-like lesions formation (angiogenesis, cellular proliferation and invasion, inflammatory Infiltration, oedema) and vascular permeability and oedema induced by KS cells in nude mice. […] The quantity of bFGF, VEGF, IL-1 and IL-6 was dosed with immuno-enzymatic trials in the supernatants of the KS cells after 24 hours of culture in the absence of serum and in the continuous presence of the two HIV-PI (ELISA). […] Furthermore IL-6 plays a key role in the multicentric Cstleman's diseases and in the growth of lymphomas (Tosato et al., 1993; Peterson and Frizzera, 1993; Asou et al., 1998; Ramsay et al., 1994), another type of tumour whose incidence is reduced in patients treated with HIV-PI (International Collaboration on HIV and Cancer 2000).

[6] = tested on: smooth muscle cells; assay: Cell growth assay of smooth muscle cells in response to bFGF; type: cell-based, human
Description: as §1

[7] = tested on: casein-degrading MMPs; assay: Casein zymography of supernatants from HUVEC treated with bFGF or TPA; type: cell-based, human; conditions: 10 μM; 8 or 24 hours
Procedure: FIG. 11. Saquinavir blocks the production of casein-degrading MMPs by endothelial cells. […] Aliquots of cell supernatants normalised to total cell number were then analysed for MMP activity by gel zymography as described above in gels containing casein (2 mg/ml) instead of gelatin.). Panel A: casein zymography performed with cell supernatants harvested after 8 hours of culture in the presence of TPA or bFGF; Panel B: casein zymography performed with cell supernatants harvested after 24 hours of culture in the presence of TPA or bFGF. Casein is specifically cleaved by stromelysins (MMP-3, MMP-10, MMP-11) and matrilysin (MMP-7) (Whittaker and Ayscough, 2001) This led to the appearance of destained areas due to caseinolytic activity present in cell supernatants.

[8] = tested on: vascular permeability and oedema induced by KS cells; assay: Vascular permeability and oedema induced by KS cells in nude mice (Evans blue); type: in vivo
Procedure: As a control, each animal was inoculated controlaterally with the same volume of diluting buffer and Matrigel. After 18 hours the animals were sacrificed and the quantity of staining decanted in the inoculation site of the KS cells was measured at the level of the two largest perpendicular diameters by means of a gauge. The quantity of staining decanted was also assessed after taking skin from the inoculation site and quantified with the spectrophotometer after extraction with formamide for 24 hours at 56° C. […] The quantity of staining decanted was calculated after subtraction of the optical density measured on the control site.
After 12 hours the animals were sacrificed, the stained area present on the site of inoculation of the KS cells was measured with a caliper and the extravasated dye was extracted from tissues with formamide and measured by spectrophotometry (Nakamura, Science 1992).

Row | Structure (SMILES) | invasion in response to bFGF [1] | total amount of MMP-2 released by cells in the presence of TPA [2] | proliferation [3] | invasion in response to bFGF [4] | production of IL-1β by KS cells [5] | production of IL-1β by KS cells ([5]; listed as indinavir) | proliferation in response to bFGF [6] | release of casein-degradation activity induced by bFGF or TPA [7] | reduction of the stained area (measurement with a gauge/caliper) [8] [%] | reduction of the amount of extravasated dye (spectrophotometer) ([8]; formamide extraction) [%]
1 | CC(C)(C)NC(=O)[C@@H]1CN(Cc2cccnc2)CCN1C[C@@H](O)C[C@@H](Cc1ccccc1)C(=O)N[C@H]1c2ccccc2C[C@H]1O [Indinavir, indinavir] | inhibit | inhibited | do not interfere | inhibit | inhibited | reduced | do not interfere | – | – | –
2 | CC(C)(C)NC(=O)[C@@H]1C[C@@H]2CCCC[C@@H]2CN1C[C@@H](O)[C@H](Cc1ccccc1)NC(=O)[C@H](CC(N)=O)NC(=O)c1ccc2ccccc2n1 [Saquinavir, saquinavir] | inhibit | – | do not interfere | inhibit | reduced; also recorded: inhibited | – | do not interfere | inhibited | 47.5 | 44.5
